Measurements as given in PMC9790248, “Effects of CYP3A Inhibition, CYP3A Induction, and Gastric Acid Reduction on the Pharmacokinetics of Ripretinib, a Switch Control KIT Tyrosine Kinase Inhibitor” (Clinical Pharmacology in Drug Development, 2022).
Where two headings read alike, the source gives them in different places.

Columns and labels:
[1] = Rifampin (strong CYP3A inducer) DDI study, plasma pharmacokinetics; type: in vivo, human; conditions: for AUC(0-t) / AUC(0-inf) / Cmax / half-life / Tmax: both sexes, human, plasma; for AUC(0-t) / AUC(0-inf) / Cmax / half-life: po; for Tmax: read-out: tmax, median (min, max); for Time postdose that mean plasma concentration remained above the LLOQ: LLOQ 2.00 ng/mL
Procedure: All studies were phase 1, fixed‐sequence, open‐label studies in healthy volunteers. One study consisted of two separate cohorts examining DDIs between ripretinib and itraconazole or pantoprazole, respectively; the rifampin study was conducted separately. Studies and cohorts were enrolled independently. Eligible participants were healthy male or female adults between 18 and 55 years of age with a body mass index (BMI) of ≥18.5 and ≤30 kg/m^2. Good health was confirmed by a physician and based on medical evaluation with no significant findings, including medical history, physical examination, laboratory tests, and 12‐lead electrocardiogram (ECG) at screening and day −1. Participants were required to abstain from alcohol, marijuana, grapefruit, Seville oranges, tangelo, star fruit, and grapefruit‐like products 14 days prior to and during the study. Participants with a positive breath test for Helicobacter pylori were excluded from the pantoprazole study.
Participants were confined to the study center from days −1 through 22 for the collection of plasma PK samples and all study procedures. Participants received an oral dose of ripretinib 100 mg on day 1 under fasting conditions; a higher dose of ripretinib was used than in the itraconazole or pantoprazole study due to the potential for decreased ripretinib exposure when coadministered with a strong CYP3A inducer (Figure 1B). On day 8, participants received oral doses of rifampin 600 mg once daily 1 hour before a meal with a full glass of water for 14 consecutive days through day 21. On day 18, participants received a second dose of ripretinib 100 mg administered simultaneously with rifampin 600 mg under fasting conditions. Blood samples for PK analysis were collected at predose and 1, 2, 3, 4, 5, 8, 10, 12, 24, 36, 48, 72, and 96 hours after administration of ripretinib on days 1 and 18. Safety was assessed throughout the study period and with a follow‐up phone call on day 29 or 7 days after discontinuation in the case of early withdrawal.
Ripretinib and its active metabolite DP‐5439 plasma concentrations were measured using a validated high‐performance liquid chromatography (HPLC) with tandem mass spectrometry (LC‐MS/MS) assay with a lower limit of quantification (LLOQ) of 2.00 ng/mL for both analytes. In this method, the analytes (ripretinib and DP‐5439) and the internal standards (ISs; DCC‐2618‐d5 and DP‐5439‐d5) were released from human plasma samples by protein precipitation. The supernatants were chromatographed using reversed‐phase HPLC with a Betasil® C8 analytical column with deionized water (0.1% formic acid) and 40/60 acetonitrile/acetone (0.1% formic acid) as the mobile phase. Mass spectrometric detection was performed on a triple quadrupole tandem mass spectrometer API 5000 or API 5500 (Applied Biosystems/MDS Sciex, Toronto, Canada) equipped with a turbo ion spray source operated in the positive ionization mode. The source parameters were collision energy 40 eV, collision gas 6 psi, Nebulizer Gas 1, Turbo IonSpray Gas 2, and curtain gas 35 psi. Quantification was obtained by using multiple reaction monitoring mode of the transitions of mass to charge ratio [m/z] 510.3 →417 for DCC‐2618 (ripretinib), m/z 496.2 →403 for DP‐5439, m/z 515.3 →417 for DCC‐2618‐d5, and m/z 501.2 →403 for DP‐5439‐d5.
Plasma concentration–time data were analyzed using noncompartmental methods using Phoenix® WinNonlin® v7.0 (Certara USA Inc., Princeton, New Jersey). Derived PK parameters included area under the concentration–time curve from time 0 to time t (AUC0–t) and area under the concentration–time curve from 0 to infinity (AUC0–∞), maximum observed concentration (Cmax), time of maximum observed concentration (tmax), elimination half‐life (t1/2), apparent systemic clearance, and for DP‐5439, metabolite to parent ratio for AUC0–t, AUC0–∞, and Cmax. […]

[2] = cited from earlier work
[3] = ripretinib 100 mg single oral dose + rifampin 600 mg QD, fasting, healthy participants (N = 21)
[4] = ripretinib 100 mg single oral dose alone, fasting, healthy participants (rifampin study, N = 21)
[5] = ripretinib 100 mg with rifampin 600 mg QD relative to ripretinib alone
[6] = ripretinib 100 mg with rifampin 600 mg QD relative to ripretinib alone, listed as ripretinib
[7] = 20 mg once daily up to 150 mg once daily

SMILES: CCn1c(=O)c(-c2cc(NC(=O)Nc3ccccc3)c(F)cc2Br)cc2cnc(NC)cc21 [Ripretinib]
- AUC(0-t) ([1]; 100 mg, ripretinib 100 mg single oral dose alone, fasting, healthy participants (rifampin study, N = 21), read-out: AUC0–t, arithmetic mean (SD)): 6620 ng·h/mL
- AUC(0-t) ([1]; 100 mg, ripretinib 100 mg single oral dose alone, fasting, healthy participants (rifampin study, N = 21), read-out: AUC0–t, geometric mean (CV%)): 5720 ng·h/mL
- AUC(0-inf) ([1]; 100 mg, ripretinib 100 mg single oral dose alone, fasting, healthy participants (rifampin study, N = 21), read-out: AUC0–∞, arithmetic mean (SD)): 6220 ng·h/mL
- AUC(0-inf) ([1]; 100 mg, ripretinib 100 mg single oral dose alone, fasting, healthy participants (rifampin study, N = 21), read-out: AUC0–∞, geometric mean (CV%)): 5820 ng·h/mL
- Cmax ([1]; 100 mg, ripretinib 100 mg single oral dose alone, fasting, healthy participants (rifampin study, N = 21), read-out: Cmax, arithmetic mean (SD)): 392 ng/mL
- Cmax ([1]; 100 mg, ripretinib 100 mg single oral dose alone, fasting, healthy participants (rifampin study, N = 21), read-out: Cmax, geometric mean (CV%)): 363 ng/mL
- half-life ([1]; 100 mg, ripretinib 100 mg single oral dose alone, fasting, healthy participants (rifampin study, N = 21), read-out: t1/2, arithmetic mean (SD) (converted)): 15 h
- half-life ([1]; 100 mg, ripretinib 100 mg single oral dose alone, fasting, healthy participants (rifampin study, N = 21), read-out: t1/2, geometric mean (CV%) (converted)): 15 h
- AUC(0-t) ([1]; ripretinib 100 mg single oral dose + rifampin 600 mg QD, fasting, healthy participants (N = 21), read-out: AUC0–t, arithmetic mean (SD)): 2360 ng·h/mL
- AUC(0-t) ([1]; ripretinib 100 mg single oral dose + rifampin 600 mg QD, fasting, healthy participants (N = 21), read-out: AUC0–t, geometric mean (CV%)): 2230 ng·h/mL
- AUC(0-inf) ([1]; ripretinib 100 mg single oral dose + rifampin 600 mg QD, fasting, healthy participants (N = 21), read-out: AUC0–∞, arithmetic mean (SD)): 2400 ng·h/mL
- AUC(0-inf) ([1]; ripretinib 100 mg single oral dose + rifampin 600 mg QD, fasting, healthy participants (N = 21), read-out: AUC0–∞, geometric mean (CV%)): 2270 ng·h/mL
- Cmax ([1]; ripretinib 100 mg single oral dose + rifampin 600 mg QD, fasting, healthy participants (N = 21), read-out: Cmax, arithmetic mean (SD)): 321 ng/mL
- Cmax ([1]; ripretinib 100 mg single oral dose + rifampin 600 mg QD, fasting, healthy participants (N = 21), read-out: Cmax, geometric mean (CV%)): 299 ng/mL
- half-life ([1]; ripretinib 100 mg single oral dose + rifampin 600 mg QD, fasting, healthy participants (N = 21), read-out: t1/2, arithmetic mean (SD) (converted)): 7 h
- half-life ([1]; ripretinib 100 mg single oral dose + rifampin 600 mg QD, fasting, healthy participants (N = 21), read-out: t1/2, geometric mean (CV%) (converted)): 7 h
- Tmax [1, 3]: 3 h
- Tmax [1, 4]: 3 h
- Exposure when combined with rifampin, relative to ripretinib alone ([1]; ripretinib 100 mg + rifampin 600 mg QD): less than half
- Time postdose that mean plasma concentration remained above the LLOQ ([1]; ripretinib 100 mg alone (rifampin study)): up to 96 hours
- CL/F, arithmetic mean (SD) [1, 3]: 47 (16) L/h
- CL/F, geometric mean (CV%) [1, 3]: 44 (35) L/h
- t1/2, geometric mean (CV%) [1, 3]: 6 (46) h
- CL/F, arithmetic mean (SD) [1, 4]: 18 (7) L/h
- CL/F, geometric mean (CV%) [1, 4]: 17 (39) L/h
- Geometric LS mean ratio of AUC0–t [1, 5]: 39%
- Geometric LS mean ratio of AUC0–∞ (90% CI) [1, 5]: 39 (35–44) %
- Geometric LS mean ratio of Cmax (90% CI) [1, 5]: 82 (72–94) %
- Geometric LS mean ratio of AUC0–∞ (90% CI) [1, 6]: 39%
- Geometric LS mean ratio of Cmax (90% CI) [1, 6]: 82%
- Time postdose that mean plasma concentration remained above the LLOQ ([1]; ripretinib 100 mg with rifampin): approximately 36 hours
- Dose proportionality of AUC [2, 7]: generally proportional to dose
- Dose proportionality of Cmax [2, 7]: less than dose proportional
- Time to maximum plasma concentrations ([2]; cancer patients, after a single dose): approximately 4 hours
- Time to reach steady-state conditions ([2]; cancer patients): ≤ 14 days
- Accumulation ratio ([2]; once-daily dosing of 150 mg): approximately 1.7
- Maximum tolerated dose ([2]; patients with cancer, doses up to ripretinib 200 mg twice daily): not reached
- Steady-state PK exposure, 150 mg twice daily compared with 150 mg once daily ([2]; patients): approximately 2 fold
